Numbers after ± are expanded uncertainties.
Settings: 101.33 kPa, Liquid, transient hot wire

## CCO [ethanol]
276.51 K
  thermal conductivity: 0.1719 ± 0.0072 W/m/K
287.55 K
  thermal conductivity: 0.1677 ± 0.0071 W/m/K
297.25 K
  thermal conductivity: 0.1645 ± 0.0069 W/m/K
307.16 K
  thermal conductivity: 0.1617 ± 0.0068 W/m/K

## CCOC(C)=O [ethyl acetate]
249.13 K
  thermal conductivity: 0.1618 ± 0.0065 W/m/K
253.89 K
  thermal conductivity: 0.1602 ± 0.0064 W/m/K
260.17 K
  thermal conductivity: 0.1574 ± 0.0063 W/m/K
268.04 K
  thermal conductivity: 0.154 ± 0.0062 W/m/K
274.35 K
  thermal conductivity: 0.152 ± 0.0061 W/m/K
281.34 K
  thermal conductivity: 0.1491 ± 0.006 W/m/K
285.31 K
  thermal conductivity: 0.1472 ± 0.0059 W/m/K
290.42 K
  thermal conductivity: 0.1451 ± 0.0058 W/m/K
295.44 K
  thermal conductivity: 0.1429 ± 0.0058 W/m/K
298.52 K
  thermal conductivity: 0.1414 ± 0.0057 W/m/K
303.53 K
  thermal conductivity: 0.1396 ± 0.0056 W/m/K
308.44 K
  thermal conductivity: 0.1378 ± 0.0055 W/m/K
313.45 K
  thermal conductivity: 0.1361 ± 0.0055 W/m/K
318.4 K
  thermal conductivity: 0.1346 ± 0.0054 W/m/K
323.25 K
  thermal conductivity: 0.1324 ± 0.0053 W/m/K
328.39 K
  thermal conductivity: 0.1308 ± 0.0053 W/m/K
333.37 K
  thermal conductivity: 0.1288 ± 0.0052 W/m/K
338.34 K
  thermal conductivity: 0.1273 ± 0.0051 W/m/K
343.27 K
  thermal conductivity: 0.1257 ± 0.0051 W/m/K
345.43 K
  thermal conductivity: 0.1245 ± 0.005 W/m/K
348.46 K
  thermal conductivity: 0.1239 ± 0.005 W/m/K

## CCCC(=O)OCC [ethyl butanoate]
268.57 K
  thermal conductivity: 0.1471 ± 0.0059 W/m/K
273.61 K
  thermal conductivity: 0.1446 ± 0.0058 W/m/K
278.63 K
  thermal conductivity: 0.1423 ± 0.0057 W/m/K
283.58 K
  thermal conductivity: 0.1408 ± 0.0057 W/m/K
288.65 K
  thermal conductivity: 0.1385 ± 0.0056 W/m/K
293.58 K
  thermal conductivity: 0.1374 ± 0.0055 W/m/K
298.53 K
  thermal conductivity: 0.1357 ± 0.0055 W/m/K
303.56 K
  thermal conductivity: 0.1339 ± 0.0054 W/m/K
308.67 K
  thermal conductivity: 0.132 ± 0.0053 W/m/K
313.49 K
  thermal conductivity: 0.1311 ± 0.0053 W/m/K
318.61 K
  thermal conductivity: 0.1293 ± 0.0052 W/m/K
323.42 K
  thermal conductivity: 0.1282 ± 0.0052 W/m/K
328.48 K
  thermal conductivity: 0.1264 ± 0.0051 W/m/K
333.46 K
  thermal conductivity: 0.1249 ± 0.005 W/m/K
338.5 K
  thermal conductivity: 0.1234 ± 0.005 W/m/K
343.51 K
  thermal conductivity: 0.1214 ± 0.0049 W/m/K
348.54 K
  thermal conductivity: 0.12 ± 0.0048 W/m/K
353.36 K
  thermal conductivity: 0.1192 ± 0.0048 W/m/K
358.57 K
  thermal conductivity: 0.1173 ± 0.0047 W/m/K
363.52 K
  thermal conductivity: 0.1163 ± 0.0047 W/m/K

## CCCCCC(=O)OCC [ethyl hexanoate]
254.29 K
  thermal conductivity: 0.1474 ± 0.0059 W/m/K
264.08 K
  thermal conductivity: 0.1447 ± 0.0058 W/m/K
274.02 K
  thermal conductivity: 0.1429 ± 0.0058 W/m/K
283.95 K
  thermal conductivity: 0.1398 ± 0.0056 W/m/K
293.74 K
  thermal conductivity: 0.1375 ± 0.0055 W/m/K
303.7 K
  thermal conductivity: 0.1353 ± 0.0054 W/m/K
313.76 K
  thermal conductivity: 0.1323 ± 0.0053 W/m/K
323.67 K
  thermal conductivity: 0.13 ± 0.0052 W/m/K
333.63 K
  thermal conductivity: 0.1268 ± 0.0051 W/m/K
343.56 K
  thermal conductivity: 0.1242 ± 0.005 W/m/K
353.55 K
  thermal conductivity: 0.1216 ± 0.0049 W/m/K
363.41 K
  thermal conductivity: 0.1191 ± 0.0048 W/m/K
373.4 K
  thermal conductivity: 0.1172 ± 0.0047 W/m/K
383.37 K
  thermal conductivity: 0.1153 ± 0.0046 W/m/K

## CCCCC(=O)OCC [ethyl pentanoate]
249.21 K
  thermal conductivity: 0.1501 ± 0.006 W/m/K
263.9 K
  thermal conductivity: 0.1458 ± 0.0059 W/m/K
273.5 K
  thermal conductivity: 0.1433 ± 0.0058 W/m/K
283.8 K
  thermal conductivity: 0.1396 ± 0.0056 W/m/K
288.74 K
  thermal conductivity: 0.1389 ± 0.0056 W/m/K
289.42 K
  thermal conductivity: 0.1377 ± 0.0055 W/m/K
293.69 K
  thermal conductivity: 0.1369 ± 0.0055 W/m/K
298.79 K
  thermal conductivity: 0.1357 ± 0.0055 W/m/K
303.69 K
  thermal conductivity: 0.1344 ± 0.0054 W/m/K
308.61 K
  thermal conductivity: 0.1328 ± 0.0053 W/m/K
313.74 K
  thermal conductivity: 0.1314 ± 0.0053 W/m/K
318.49 K
  thermal conductivity: 0.1301 ± 0.0052 W/m/K
323.74 K
  thermal conductivity: 0.1282 ± 0.0052 W/m/K
328.62 K
  thermal conductivity: 0.1268 ± 0.0051 W/m/K
333.51 K
  thermal conductivity: 0.1256 ± 0.0051 W/m/K
338.47 K
  thermal conductivity: 0.1241 ± 0.005 W/m/K
343.55 K
  thermal conductivity: 0.1228 ± 0.0049 W/m/K
348.55 K
  thermal conductivity: 0.1216 ± 0.0049 W/m/K
353.49 K
  thermal conductivity: 0.1201 ± 0.0048 W/m/K
358.46 K
  thermal conductivity: 0.1184 ± 0.0048 W/m/K
363.57 K
  thermal conductivity: 0.1177 ± 0.0047 W/m/K

## CCOC(=O)CC [ethyl propanoate]
263.55 K
  thermal conductivity: 0.1547 ± 0.0062 W/m/K
268.41 K
  thermal conductivity: 0.1531 ± 0.0062 W/m/K
270.94 K
  thermal conductivity: 0.152 ± 0.0061 W/m/K
278.51 K
  thermal conductivity: 0.1474 ± 0.0059 W/m/K
283.51 K
  thermal conductivity: 0.1447 ± 0.0058 W/m/K
288.56 K
  thermal conductivity: 0.143 ± 0.0058 W/m/K
293.54 K
  thermal conductivity: 0.1408 ± 0.0057 W/m/K
296.36 K
  thermal conductivity: 0.1404 ± 0.0057 W/m/K
301.4 K
  thermal conductivity: 0.1384 ± 0.0056 W/m/K
306.51 K
  thermal conductivity: 0.1365 ± 0.0055 W/m/K
311.34 K
  thermal conductivity: 0.1348 ± 0.0054 W/m/K
316.45 K
  thermal conductivity: 0.1332 ± 0.0054 W/m/K
321.47 K
  thermal conductivity: 0.1314 ± 0.0053 W/m/K
326.44 K
  thermal conductivity: 0.13 ± 0.0052 W/m/K
331.53 K
  thermal conductivity: 0.128 ± 0.0052 W/m/K
336.4 K
  thermal conductivity: 0.1264 ± 0.0051 W/m/K
341.36 K
  thermal conductivity: 0.125 ± 0.005 W/m/K
346.42 K
  thermal conductivity: 0.1231 ± 0.005 W/m/K
351.35 K
  thermal conductivity: 0.1219 ± 0.0049 W/m/K
356.28 K
  thermal conductivity: 0.1208 ± 0.0049 W/m/K

## O [water]
299.55 K
  thermal conductivity: 0.613 ± 0.026 W/m/K
309.83 K
  thermal conductivity: 0.6313 ± 0.026 W/m/K
319.56 K
  thermal conductivity: 0.6399 ± 0.027 W/m/K
332.53 K
  thermal conductivity: 0.6555 ± 0.028 W/m/K
339.33 K
  thermal conductivity: 0.657 ± 0.028 W/m/K
349.41 K
  thermal conductivity: 0.6723 ± 0.028 W/m/K
